Measured values as given in patent US8772478B2, “Benzenesulfonamide compounds, method for synthesizing same, and use thereof in medicine as well as in cosmetics” (Galderma Research & Development, priority 2009, dated 2014).

Assays:
[1] = tested on: TACE enzyme; conditions: from WO 00/44709, table 10, example 61; cited from earlier work
[2] = biological target: TACE enzyme (Homo sapiens, UniProt P78536); test: Enzymatic assay for TACE inhibition; type: biochemical; conditions: for % TACE inhibition at 10 μM: 10 μM compound
Sequence of TACE enzyme (Homo sapiens, UniProt P78536) (P78536 215-824 limits assumed): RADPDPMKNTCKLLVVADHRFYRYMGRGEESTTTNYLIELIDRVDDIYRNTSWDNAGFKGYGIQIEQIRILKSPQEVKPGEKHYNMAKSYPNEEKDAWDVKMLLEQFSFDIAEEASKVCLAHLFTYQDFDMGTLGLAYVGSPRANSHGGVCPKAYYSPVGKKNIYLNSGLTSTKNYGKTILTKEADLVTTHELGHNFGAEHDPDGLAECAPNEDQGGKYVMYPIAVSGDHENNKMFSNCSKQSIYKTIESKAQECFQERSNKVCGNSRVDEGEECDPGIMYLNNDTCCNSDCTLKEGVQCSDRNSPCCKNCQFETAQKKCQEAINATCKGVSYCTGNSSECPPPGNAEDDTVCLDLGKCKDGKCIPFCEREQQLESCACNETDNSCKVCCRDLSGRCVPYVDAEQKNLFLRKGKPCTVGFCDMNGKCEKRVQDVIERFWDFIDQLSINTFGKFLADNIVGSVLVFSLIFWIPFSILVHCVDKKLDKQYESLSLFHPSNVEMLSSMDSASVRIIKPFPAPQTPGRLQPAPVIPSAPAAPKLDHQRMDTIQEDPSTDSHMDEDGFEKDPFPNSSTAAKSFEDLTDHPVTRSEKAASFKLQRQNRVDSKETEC

[3] = biological target: ADAM9 (Homo sapiens (Human), UniProt Q13443); test: Selectivity assay ADAM9; type: biochemical
Sequence of ADAM9 (Q13443 29-819, species assumed): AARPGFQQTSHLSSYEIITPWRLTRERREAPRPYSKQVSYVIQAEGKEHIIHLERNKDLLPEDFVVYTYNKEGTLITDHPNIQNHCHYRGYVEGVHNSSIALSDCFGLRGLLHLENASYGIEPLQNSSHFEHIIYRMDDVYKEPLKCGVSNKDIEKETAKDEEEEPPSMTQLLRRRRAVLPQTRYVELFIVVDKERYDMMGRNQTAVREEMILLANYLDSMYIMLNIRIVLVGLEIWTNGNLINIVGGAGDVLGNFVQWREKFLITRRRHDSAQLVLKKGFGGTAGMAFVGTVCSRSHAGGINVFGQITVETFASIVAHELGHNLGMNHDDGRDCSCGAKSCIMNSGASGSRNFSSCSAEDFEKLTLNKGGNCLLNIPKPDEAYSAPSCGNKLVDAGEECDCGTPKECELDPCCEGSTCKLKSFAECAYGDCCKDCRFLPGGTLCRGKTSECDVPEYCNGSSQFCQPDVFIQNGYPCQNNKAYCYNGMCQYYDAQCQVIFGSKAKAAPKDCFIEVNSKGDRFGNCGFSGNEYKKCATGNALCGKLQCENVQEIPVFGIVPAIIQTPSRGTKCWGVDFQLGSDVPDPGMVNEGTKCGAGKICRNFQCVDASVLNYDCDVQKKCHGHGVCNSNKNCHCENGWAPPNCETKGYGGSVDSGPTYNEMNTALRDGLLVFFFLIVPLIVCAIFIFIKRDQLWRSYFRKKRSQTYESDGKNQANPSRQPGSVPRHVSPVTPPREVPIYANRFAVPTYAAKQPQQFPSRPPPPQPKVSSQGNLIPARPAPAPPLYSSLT

[4] = biological target: MMP1 (Homo sapiens (Human), UniProt P03956); test: Selectivity assay MMP1; type: biochemical
Sequence of MMP1 (P03956 100-469, species assumed): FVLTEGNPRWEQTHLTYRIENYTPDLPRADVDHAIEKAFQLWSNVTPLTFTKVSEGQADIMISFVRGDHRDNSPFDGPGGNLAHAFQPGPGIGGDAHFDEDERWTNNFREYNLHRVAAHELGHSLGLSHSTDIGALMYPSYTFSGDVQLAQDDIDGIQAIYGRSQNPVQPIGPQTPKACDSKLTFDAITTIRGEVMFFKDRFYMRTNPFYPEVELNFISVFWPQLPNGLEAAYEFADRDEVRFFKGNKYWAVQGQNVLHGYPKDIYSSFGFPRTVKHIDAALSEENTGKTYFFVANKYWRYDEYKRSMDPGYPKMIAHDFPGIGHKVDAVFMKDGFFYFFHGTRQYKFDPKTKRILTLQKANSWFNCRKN

[5] = biological target: MMP3 (Homo sapiens (Human), UniProt P08254); test: Selectivity assay MMP3; type: biochemical
Sequence of MMP3 (P08254 100-477, species assumed): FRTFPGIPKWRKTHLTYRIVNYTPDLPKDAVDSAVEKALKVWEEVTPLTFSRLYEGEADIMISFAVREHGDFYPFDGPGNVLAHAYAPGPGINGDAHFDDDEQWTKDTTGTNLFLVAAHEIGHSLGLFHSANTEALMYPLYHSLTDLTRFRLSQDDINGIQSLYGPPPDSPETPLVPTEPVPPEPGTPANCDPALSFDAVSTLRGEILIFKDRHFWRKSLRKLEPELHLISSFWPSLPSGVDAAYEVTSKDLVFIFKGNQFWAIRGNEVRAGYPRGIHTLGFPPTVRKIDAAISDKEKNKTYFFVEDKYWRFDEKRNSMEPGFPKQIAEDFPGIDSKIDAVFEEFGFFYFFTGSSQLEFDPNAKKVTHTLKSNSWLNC

[6] = biological target: ADAM10 (Homo sapiens (Human), UniProt O14672); test: Selectivity assay ADAM10; type: biochemical
Sequence of ADAM10 (O14672 214-748, species assumed): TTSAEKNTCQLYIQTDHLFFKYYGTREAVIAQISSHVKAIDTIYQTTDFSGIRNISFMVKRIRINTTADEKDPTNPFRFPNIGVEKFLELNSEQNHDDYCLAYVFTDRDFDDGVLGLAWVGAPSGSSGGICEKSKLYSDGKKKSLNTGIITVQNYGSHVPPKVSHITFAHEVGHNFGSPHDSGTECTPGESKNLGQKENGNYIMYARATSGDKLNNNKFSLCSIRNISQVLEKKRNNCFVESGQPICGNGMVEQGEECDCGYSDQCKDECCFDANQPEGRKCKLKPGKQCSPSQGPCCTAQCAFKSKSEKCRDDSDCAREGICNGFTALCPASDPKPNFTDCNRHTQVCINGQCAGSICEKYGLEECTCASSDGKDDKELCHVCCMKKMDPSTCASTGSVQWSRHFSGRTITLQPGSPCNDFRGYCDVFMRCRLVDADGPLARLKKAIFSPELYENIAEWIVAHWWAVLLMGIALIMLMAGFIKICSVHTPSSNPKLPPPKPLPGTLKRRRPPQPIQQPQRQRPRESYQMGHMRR

[7] = biological target: MMP9 (Homo sapiens (Human), UniProt P14780); test: Selectivity assay MMP9; type: biochemical
Sequence of MMP9 (P14780 94-707, species assumed): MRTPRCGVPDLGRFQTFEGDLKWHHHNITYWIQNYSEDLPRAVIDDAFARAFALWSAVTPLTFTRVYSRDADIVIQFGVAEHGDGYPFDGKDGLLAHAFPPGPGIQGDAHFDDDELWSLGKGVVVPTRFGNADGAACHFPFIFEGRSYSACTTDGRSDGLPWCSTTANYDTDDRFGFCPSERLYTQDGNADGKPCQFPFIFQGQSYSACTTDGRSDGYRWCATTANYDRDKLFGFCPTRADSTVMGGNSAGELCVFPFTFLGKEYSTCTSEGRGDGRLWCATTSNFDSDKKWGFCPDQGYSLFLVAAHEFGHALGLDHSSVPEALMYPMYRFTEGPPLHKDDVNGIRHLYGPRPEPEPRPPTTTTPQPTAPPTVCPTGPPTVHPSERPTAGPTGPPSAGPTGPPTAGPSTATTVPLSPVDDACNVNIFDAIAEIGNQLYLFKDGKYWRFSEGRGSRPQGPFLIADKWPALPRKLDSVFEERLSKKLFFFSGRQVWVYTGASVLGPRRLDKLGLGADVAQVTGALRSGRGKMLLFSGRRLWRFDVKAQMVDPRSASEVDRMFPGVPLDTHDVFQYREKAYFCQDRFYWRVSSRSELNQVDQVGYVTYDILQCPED

[8] = fluorescent substrate 40 μM, pH 7.4

Row | % TACE inhibition at 10 μM [2] | IC50 [2, 8] | Structure (SMILES) | further results
1 | 98% | 181 nM | O=C(NO)[C@H](CNS(=O)(=O)c1ccc(OCc2ccccc2)cc1)N1CCCCC1 [Example 1, (S)-3-(4-benzyloxybenzenesulfonylamino)-N-hydroxy-2-piperidin-1-ylpropionamide] | –
2 | 95% | 298 nM | O=C(NO)[C@H](CNS(=O)(=O)c1ccc(OCc2ccccc2)cc1)N1CCCC1 [Example 2, (S)-3-(4-benzyloxybenzenesulfonylamino)-N-hydroxy-2-pyrrolidin-1-ylpropionamide] | –
3 | 97% | 181 nM | O=C(NO)[C@H](CNS(=O)(=O)c1ccc(OCc2ccc(F)cc2)cc1)N1CCCCC1 [Example 3, (S)-3-[4-(4-fluorobenzyloxy)benzenesulfonylamino]-N-hydroxy-2-piperidin-1-ylpropionamide] | –
4 | 99% | 469 nM | O=C(NO)[C@H](CNS(=O)(=O)c1ccc(OCc2cc(Cl)cc(Cl)c2)cc1)N1CCCCC1 [Example 9, (S)-3-[4-(3,5-dichlorobenzyloxy)benzenesulfonylamino]-N-hydroxy-2-piperidin-1-ylpropionamide] | –
5 | 91% | 38 nM | Cc1cc(COc2ccc(S(=O)(=O)NC[C@@H](C(=O)NO)N3CCOCC3)cc2)c2ccccc2n1 [Example 14, (S)—N-hydroxy-3-[4-(2-methylquinolin-4-ylmethoxy)benzenesulfonylamino]-2-morpholin-4-ylpropionamide] | IC50 [5]: 3030 nM; IC50 ([2]; as listed in selectivity assay table): 24 nM

Continued, molecule first:

Row | Structure (SMILES) | % TACE inhibition at 10 μM [2] | IC50 [2, 8] | further results
6 | CC1(C)SCCN(S(=O)(=O)c2ccc(OCC#CCO)cc2)[C@H]1C(=O)NO [Apratastat] | – | – | selectivity for the TACE enzyme compared with certain MMPs [1]: not selective
7 | O=C(NO)[C@H](CNS(=O)(=O)c1ccc(OCc2ccc3ccccc3c2)cc1)N1CCCCC1 [Example 5, (S)—N-Hydroxy-3-[4-(naphthalen-2-ylmethoxy)benzenesulfonylamino]-2-piperidin-1-ylpropionamide] | 97% | 249 nM | –
8 | O=C(NO)[C@H](CNS(=O)(=O)c1ccc(OCc2ccc(Cl)c(Cl)c2)cc1)N1CCCCC1 [Example 6, (S)-3-[4-(3,4-dichlorobenzyloxy)benzenesulfonylamino]-N-hydroxy-2-piperidin-1-ylpropionamide] | 97% | 328 nM | –
9 | O=C(NO)[C@H](CNS(=O)(=O)c1ccc(OCc2ccccc2)cc1)N1CCOCC1 [Example 7, (S)-3-(4-benzyloxybenzenesulfonylamino)-N-hydroxy-2-morpholin-4-ylpropionamide] | 98% | 147 nM | –
10 | Cc1cc(COc2ccc(S(=O)(=O)NC[C@@H](C(=O)NO)N3CCCCC3)cc2)c2ccccc2n1 [Example 8, (S)—N-hydroxy-3-[4-(2-methylquinolin-4-ylmethoxy)benzenesulfonylamino]-2-piperidin-1-ylpropionamide] | 99% | – | IC50 [3]: > 10000 nM; IC50 [4]: 3000 nM; IC50 [5]: 4500 nM; IC50 [6]: > 10000 nM; IC50 [7]: > 10000 nM
11 | Cc1cc(COc2ccc(S(=O)(=O)NC[C@@H](C(=O)NO)N3CCCCC3)cc2)c2ccccc2n1.Cl.Cl [Example 15, (S)—N-hydroxy-3-[4-(2-methylquinolin-4-ylmethoxy)benzenesulfonylamino]-2-piperidin-1-ylpropionamide dihydrochloride] | 98% | – | –
